Where “and” joins values, the source holds several entries; their conditions need not be identical. Equal entries are not always repeated. Toxic doses and inconclusive results are not listed.
Test system: L1210 leukemia ip in BDF1 mice, survival T/C
Assay: NCI In Vivo Anticancer Drug Screen. Data for tumor model L1210 Leukemia (intraperitoneal) in B6D2F1 (BDF1) mice
Details: endpoint: mean survival time, higher = longer survival
Procedure, shortened: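 Tumor was transplanted into mice, which were then dosed with test compound or vehicle alone. Survival was recorded for each group, and the treated figure was expressed relative to the control figure.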

[1] = dose: 200.0 mg/kg/injection, schedule: Q01DX001 (ip), vehicle: saline
[2] = dose: 200.0 mg/kg/injection, schedule: Q04DX003 (ip), vehicle: saline
[3] = dose: 100.0 mg/kg/injection, schedule: Q01DX001 (ip), vehicle: saline
[4] = dose: 100.0 mg/kg/injection, schedule: Q04DX003 (ip), vehicle: saline
[5] = dose: 100.0 mg/kg/injection, schedule: Q04DX003 (ip), vehicle: saline with Tween-80
[6] = dose: 200.0 mg/kg/injection, schedule: Q04DX003 (ip), vehicle: saline with Tween-80
[7] = dose: 400.0 mg/kg/injection, schedule: Q04DX003 (ip), vehicle: saline with Tween-80
[8] = dose: 100.0 mg/kg/injection, schedule: Q01DX001 (ip), vehicle: carboxymethylcellulose (CMC)
[9] = dose: 200.0 mg/kg/injection, schedule: Q01DX001 (ip), vehicle: carboxymethylcellulose (CMC)
[10] = dose: 400.0 mg/kg/injection, schedule: Q01DX001 (ip), vehicle: carboxymethylcellulose (CMC)

CNS(=O)(=O)c1ncnc2nc[nH]c12
T/C (dose: 3.0 mg/kg/injection, schedule: Q01DX Z (ip), vehicle: carboxymethylcellulose (CMC)): 113 % of control | T/C (dose: 6.0 mg/kg/injection, schedule: Q01DX Z (ip), vehicle: carboxymethylcellulose (CMC)): 115 % of control | T/C (dose: 12.0 mg/kg/injection, schedule: Q01DX Z (ip), vehicle: carboxymethylcellulose (CMC)): 119 % of control | T/C (dose: 22.0 mg/kg/injection, schedule: Q01DX Z (ip), vehicle: carboxymethylcellulose (CMC)): 100 % of control | T/C (dose: 25.0 mg/kg/injection, schedule: Q01DX Z (ip), vehicle: carboxymethylcellulose (CMC)): 117 % of control | T/C (dose: 33.0 mg/kg/injection, schedule: Q01DX Z (ip), vehicle: carboxymethylcellulose (CMC)): 100 % of control | T/C (dose: 50.0 mg/kg/injection, schedule: Q01DX009 (ip), vehicle: saline with Tween-80): 115 % of control | T/C (dose: 50.0 mg/kg/injection, schedule: Q01DX Z (ip), vehicle: carboxymethylcellulose (CMC)): 121 % of control | T/C (dose: 75.0 mg/kg/injection, schedule: Q01DX Z (ip), vehicle: carboxymethylcellulose (CMC)): 121 % of control | T/C (dose: 100.0 mg/kg/injection, schedule: Q01DX001 (ip), vehicle: acetone): 100 % of control | T/C (dose: 132.0 mg/kg/injection, schedule: Q01DX001 (ip), vehicle: saline): 112 % of control and 88 % of control | T/C (dose: 132.0 mg/kg/injection, schedule: Q01DX009 (ip), vehicle: saline with Tween-80): 112 % of control | T/C (dose: 132.0 mg/kg/injection, schedule: Q01DX009 (ip), vehicle: saline): 110 % of control | T/C (dose: 132.0 mg/kg/injection, schedule: Q04DX003 (ip), vehicle: saline): 121 % of control | T/C (dose: 200.0 mg/kg/injection, schedule: Q01DX001 (ip), vehicle: acetone): 182 % of control | T/C [1]: 103 % of control and 108 % of control | T/C (dose: 200.0 mg/kg/injection, schedule: Q01DX009 (ip), vehicle: saline with Tween-80): 162 % of control | T/C [2]: 122 % of control | T/C (dose: 300.0 mg/kg/injection, schedule: Q01DX001 (ip), vehicle: saline): 101 % of control and 103 % of control | T/C (dose: 300.0 mg/kg/injection, schedule: Q01DX009 (ip), vehicle: saline): 117 % of control

CN=C(Nc1ccccc1C)SC
T/C (dose: 50.0 mg/kg/injection, schedule: Q04DX003 (ip), vehicle: saline): 100 % of control | T/C [3]: 98 % of control | T/C [4]: 100 % of control | T/C [1]: 102 % of control | T/C [2]: 106 % of control

CCc1c2cc(OC)c(OC)cc2cc2c3cc(OC)c(OC)cc3cc[n+]12 (tested in a mixture with another compound)
T/C (dose: 25.0 mg/kg/injection, schedule: Q01DX009 (ip), vehicle: saline): 116 % of control | T/C (dose: 50.0 mg/kg/injection, schedule: Q01DX009 (ip), vehicle: saline): 123 % of control | T/C (dose: 66.0 mg/kg/injection, schedule: Q01DX009 (ip), vehicle: saline with Tween-80): 150 % of control | T/C (dose: 88.0 mg/kg/injection, schedule: Q04DX003 (ip), vehicle: saline): 121 % of control | T/C (dose: 100.0 mg/kg/injection, schedule: Q01DX009 (ip), vehicle: saline with Tween-80): 160 % of control | T/C (dose: 150.0 mg/kg/injection, schedule: Q01DX009 (ip), vehicle: saline with Tween-80): 156 % of control | T/C (dose: 200.0 mg/kg/injection, schedule: Q01DX009 (ip), vehicle: saline): 89 % of control | T/C (dose: 300.0 mg/kg/injection, schedule: Q04DX003 (ip), vehicle: saline): 107 % of control

CC12OC1(C)C1(CO1)C1(C)OC1(C)C2=O (centres undefined)
T/C (dose: 100.0 mg/kg/injection, schedule: Q01DX001 (ip), vehicle: Klucel (hydroxypropylcellulose) (HPC)): 94 % of control | T/C (dose: 200.0 mg/kg/injection, schedule: Q01DX001 (ip), vehicle: Klucel (hydroxypropylcellulose) (HPC)): 97 % of control | T/C (dose: 400.0 mg/kg/injection, schedule: Q01DX001 (ip), vehicle: Klucel (hydroxypropylcellulose) (HPC)): 87 % of control

CC1(C)CCc2cc3c(O)c(-c4ccccc4)c(=O)oc3cc2O1
T/C [4]: 97 % of control | T/C [2]: 91 % of control | T/C (dose: 400.0 mg/kg/injection, schedule: Q04DX003 (ip), vehicle: saline): 91 % of control

O=Cc1nc2ccccc2c2ccccc12
T/C [5]: 89 % of control | T/C [6]: 94 % of control | T/C [7]: 103 % of control

CCCCCSP(SCCCCC)c1ccccc1
T/C (dose: 100.0 mg/kg/injection, schedule: Q01DX009 (ip), vehicle: Klucel (hydroxypropylcellulose) (HPC)): 92 % of control | T/C (dose: 200.0 mg/kg/injection, schedule: Q01DX009 (ip), vehicle: Klucel (hydroxypropylcellulose) (HPC)): 94 % of control

COC(=O)C1=CNC=C(C(=O)OC)C1c1ccc(C)cc1
T/C [5]: 95 % of control | T/C [6]: 93 % of control | T/C [7]: 91 % of control

O=NN(CCCl)C(=O)Nc1cc(Cl)ccc1O
T/C (dose: 1.0 mg/kg/injection, schedule: Q01DX001 (ip), vehicle: carboxymethylcellulose (CMC)): 116 % of control | T/C (dose: 2.0 mg/kg/injection, schedule: Q01DX001 (ip), vehicle: carboxymethylcellulose (CMC)): 110 % of control | T/C (dose: 4.0 mg/kg/injection, schedule: Q01DX001 (ip), vehicle: carboxymethylcellulose (CMC)): 116 % of control | T/C (dose: 44.0 mg/kg/injection, schedule: Q01DX009 (ip), vehicle: carboxymethylcellulose (CMC)): 100 % of control | T/C (dose: 66.0 mg/kg/injection, schedule: Q01DX001 (ip), vehicle: carboxymethylcellulose (CMC)): 111 % of control | T/C (dose: 66.0 mg/kg/injection, schedule: Q01DX009 (ip), vehicle: carboxymethylcellulose (CMC)): 90 % of control | T/C [8]: 114 % of control | T/C (dose: 100.0 mg/kg/injection, schedule: Q01DX009 (ip), vehicle: carboxymethylcellulose (CMC)): 95 % of control | T/C (dose: 150.0 mg/kg/injection, schedule: Q01DX001 (ip), vehicle: carboxymethylcellulose (CMC)): 111 % of control | T/C [9]: 115 % of control | T/C (dose: 225.0 mg/kg/injection, schedule: Q01DX001 (ip), vehicle: carboxymethylcellulose (CMC)): 123 % of control | T/C [10]: 116 % of control | T/C (dose: 800.0 mg/kg/injection, schedule: Q01DX001 (ip), vehicle: carboxymethylcellulose (CMC)): 118 % of control

O=S(=O)(ON=C1C=CC(=NOS(=O)(=O)c2ccccc2)C=C1)c1ccccc1
T/C (dose: 50.0 mg/kg/injection, schedule: Q01DX001 (ip), vehicle: saline): 96 % of control | T/C [3]: 93 % of control | T/C [1]: 93 % of control | T/C (dose: 400.0 mg/kg/injection, schedule: Q01DX001 (ip), vehicle: saline): 93 % of control

Cc1cc(Cl)ccc1OCC(=O)Nc1cccc(C(F)(F)F)c1
T/C (dose: 100.0 mg/kg/injection, schedule: Q04DX002 (ip), vehicle: saline): 103 % of control | T/C (dose: 200.0 mg/kg/injection, schedule: Q04DX002 (ip), vehicle: saline): 100 % of control | T/C (dose: 400.0 mg/kg/injection, schedule: Q04DX002 (ip), vehicle: saline): 92 % of control

CCCCCCCCCC(C)CCCC (centres undefined)
T/C (dose: 100.0 mg/kg/injection, schedule: Q01DX001 (ip), vehicle: saline with Tween-80): 86 % of control | T/C (dose: 200.0 mg/kg/injection, schedule: Q01DX001 (ip), vehicle: saline with Tween-80): 96 % of control

Fc1ccc(Cc2nnc(Cc3ccc(F)cc3)nn2)cc1
T/C (dose: 100.0 mg/kg/injection, schedule: Q04DX002 (ip), vehicle: Klucel (hydroxypropylcellulose) (HPC)): 105 % of control | T/C (dose: 200.0 mg/kg/injection, schedule: Q04DX002 (ip), vehicle: Klucel (hydroxypropylcellulose) (HPC)): 102 % of control

CCOC(=O)CN1CC(C)(C)N(CC(=O)OCC)CC1(C)C
T/C [8]: 93 % of control | T/C [9]: 93 % of control | T/C [10]: 104 % of control

NCCCP(c1ccccc1)c1ccccc1
T/C (dose: 75.0 mg/kg/injection, schedule: Q01DX001 (ip), vehicle: saline): 105 % of control | T/C (dose: 150.0 mg/kg/injection, schedule: Q01DX001 (ip), vehicle: saline): 92 % of control

O=C(Nc1ccccc1)Oc1cccc2cccnc12
T/C (dose: 50.0 mg/kg/injection, schedule: Q04DX003 (ip), vehicle: Klucel (hydroxypropylcellulose) (HPC)): 100 % of control | T/C (dose: 100.0 mg/kg/injection, schedule: Q04DX003 (ip), vehicle: Klucel (hydroxypropylcellulose) (HPC)): 105 % of control | T/C (dose: 200.0 mg/kg/injection, schedule: Q04DX003 (ip), vehicle: Klucel (hydroxypropylcellulose) (HPC)): 97 % of control

Source: PubChem BioAssay AID248 (DTP/NCI, 2004)
